Reference: PubChem BioAssay (NCI)
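The concentration for 50% growth inhibition is given as GI50. TGI is the concentration that stops growth completely.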

Key:
Assay in all cases: NCI anticancer screen, dose series, 384-well format
SK-MEL-5 melanoma = system: SK-MEL-5 melanoma
SF-295 CNS = system: SF-295 CNS
UACC-257 melanoma = system: UACC-257 melanoma
SR leukemia = system: SR leukemia
HL-60(TB) leukemia = system: HL-60(TB) leukemia
RPMI-8226 leukemia = system: RPMI-8226 leukemia
MOLT-4 leukemia = system: MOLT-4 leukemia
SNB-19 CNS = system: SNB-19 CNS
NCI-H23 lung = system: NCI-H23 lung
SW-620 colon = system: SW-620 colon
NCI-H226 lung = system: NCI-H226 lung
HS 578T breast = system: HS 578T breast
786-0 renal = system: 786-0 renal
SF-539 CNS = system: SF-539 CNS
EKVX NSCLC = system: EKVX NSCLC
OVCAR-3 ovarian = system: OVCAR-3 ovarian
MDA-MB-468 breast = system: MDA-MB-468 breast
DU-145 prostate = system: DU-145 prostate
UACC-62 melanoma = system: UACC-62 melanoma
HOP-92 NSCLC = system: HOP-92 NSCLC
SF-268 CNS = system: SF-268 CNS
NCI-H522 lung = system: NCI-H522 lung
TK-10 renal = system: TK-10 renal
BT-549 breast = system: BT-549 breast
NCI/ADR-RES ovarian = system: NCI/ADR-RES ovarian
SK-OV-3 ovarian = system: SK-OV-3 ovarian
T-47D breast = system: T-47D breast
ACHN renal = system: ACHN renal
K-562 leukemia = system: K-562 leukemia
CCRF-CEM leukemia = system: CCRF-CEM leukemia
COLO 205 colon = system: COLO 205 colon
RXF 393 renal = system: RXF 393 renal
IGROV1 ovarian = system: IGROV1 ovarian
UO-31 renal = system: UO-31 renal
OVCAR-8 ovarian = system: OVCAR-8 ovarian
MALME-3M melanoma = system: MALME-3M melanoma
HT29 colon = system: HT29 colon
A549 NSCLC = system: A549 NSCLC
M14 melanoma = system: M14 melanoma
MDA-MB-435 melanoma = system: MDA-MB-435 melanoma
SNB-75 CNS = system: SNB-75 CNS
CAKI-1 renal = system: CAKI-1 renal
NCI-H322M lung = system: NCI-H322M lung
OVCAR-5 ovarian = system: OVCAR-5 ovarian
SN12C renal = system: SN12C renal
MCF7 breast = system: MCF7 breast
OVCAR-4 ovarian = system: OVCAR-4 ovarian
HCT-15 colon = system: HCT-15 colon
MDA-MB-231 breast = system: MDA-MB-231 breast
HOP-62 NSCLC = system: HOP-62 NSCLC
KM12 colon = system: KM12 colon
SK-MEL-28 melanoma = system: SK-MEL-28 melanoma
A498 renal = system: A498 renal
PC-3 prostate = system: PC-3 prostate
LOX IMVI melanoma = system: LOX IMVI melanoma
NCI-H460 NSCLC = system: NCI-H460 NSCLC
HCC-2998 colon = system: HCC-2998 colon

CCCCCCCCCCCCCCCCCCOP(=O)([O-])OC1CC[N+](C)(C)CC1
GI50 (SK-MEL-5 melanoma): > 100 µM
TGI (SK-MEL-5 melanoma): > 100 µM
GI50 (SF-295 CNS): 11.7 µM
TGI (SF-295 CNS): 61.9 µM
GI50 (UACC-257 melanoma): > 100 µM
TGI (UACC-257 melanoma): > 100 µM
GI50 (SR leukemia): 0.406 µM
TGI (SR leukemia): 2 µM
GI50 (HL-60(TB) leukemia): 1.45 µM
TGI (HL-60(TB) leukemia): 2.85 µM
GI50 (RPMI-8226 leukemia): 0.32 µM
TGI (RPMI-8226 leukemia): 0.819 µM
GI50 (MOLT-4 leukemia): 7.26 µM
TGI (MOLT-4 leukemia): 19.9 µM
GI50 (SNB-19 CNS): 21.3 µM
TGI (SNB-19 CNS): 77 µM
GI50 (NCI-H23 lung): > 100 µM
TGI (NCI-H23 lung): > 100 µM
GI50 (SW-620 colon): 10 µM
TGI (SW-620 colon): > 100 µM
GI50 (NCI-H226 lung): 50 µM
TGI (NCI-H226 lung): > 100 µM
GI50 (HS 578T breast): 32.8 µM
TGI (HS 578T breast): > 100 µM
GI50 ([…]-0 renal): 7.36 µM
TGI (786-0 renal): 31.3 µM
GI50 (SF-539 CNS): > 100 µM
TGI (SF-539 CNS): > 100 µM
GI50 (EKVX NSCLC): 32.5 µM
TGI (EKVX NSCLC): > 100 µM
GI50 (OVCAR-3 ovarian): 64 µM
TGI (OVCAR-3 ovarian): > 100 µM
GI50 (MDA-MB-468 breast): 23.2 µM
TGI (MDA-MB-468 breast): 49 µM
GI50 (DU-145 prostate): 36.4 µM
TGI (DU-145 prostate): > 100 µM
GI50 (UACC-62 melanoma): 23.2 µM
TGI (UACC-62 melanoma): > 100 µM
GI50 (HOP-92 NSCLC): 11.6 µM
TGI (HOP-92 NSCLC): 24.6 µM
GI50 (SF-268 CNS): 22.2 µM
TGI (SF-268 CNS): 85.7 µM
GI50 (NCI-H522 lung): 8.69 µM
TGI (NCI-H522 lung): 23.1 µM
GI50 (TK-10 renal): 1.48 µM
TGI (TK-10 renal): 3 µM
GI50 (BT-549 breast): 11.5 µM
TGI (BT-549 breast): 24.3 µM
GI50 (NCI/ADR-RES ovarian): > 100 µM
TGI (NCI/ADR-RES ovarian): > 100 µM
GI50 (SK-OV-3 ovarian): > 100 µM
TGI (SK-OV-3 ovarian): > 100 µM
GI50 (T-47D breast): 29.6 µM
TGI (T-47D breast): > 100 µM
GI50 (ACHN renal): 15.9 µM
TGI (ACHN renal): 30.6 µM
GI50 (K-562 leukemia): 61.5 µM
TGI (K-562 leukemia): > 100 µM
GI50 (CCRF-CEM leukemia): 1.8 µM
TGI (CCRF-CEM leukemia): 4.79 µM
GI50 (COLO 205 colon): 1.29 µM
TGI (COLO 205 colon): 16 µM
GI50 (RXF 393 renal): 2.87 µM
TGI (RXF 393 renal): 18.1 µM
GI50 (IGROV1 ovarian): 1.67 µM
TGI (IGROV1 ovarian): 3.99 µM
GI50 (UO-31 renal): 45.9 µM
TGI (UO-31 renal): > 100 µM
GI50 (OVCAR-8 ovarian): 39.9 µM
TGI (OVCAR-8 ovarian): > 100 µM
GI50 (MALME-3M melanoma): > 100 µM
TGI (MALME-3M melanoma): > 100 µM
GI50 (HT29 colon): 2.9 µM
TGI (HT29 colon): 12.9 µM
GI50 (A549 NSCLC): 14.4 µM
TGI (A549 NSCLC): 28 µM
GI50 (M14 melanoma): 21.1 µM
TGI (M14 melanoma): 62.8 µM
GI50 (MDA-MB-435 melanoma): > 100 µM
TGI (MDA-MB-435 melanoma): > 100 µM
GI50 (SNB-75 CNS): 68.8 µM
TGI (SNB-75 CNS): > 100 µM
GI50 (CAKI-1 renal): 10.8 µM
TGI (CAKI-1 renal): 24.5 µM
GI50 (NCI-H322M lung): 60.9 µM
TGI (NCI-H322M lung): > 100 µM
GI50 (OVCAR-5 ovarian): 6.35 µM
TGI (OVCAR-5 ovarian): 36.4 µM
GI50 (SN12C renal): 25.5 µM
TGI (SN12C renal): 98 µM
GI50 (MCF7 breast): 57.5 µM
TGI (MCF7 breast): > 100 µM
GI50 (OVCAR-4 ovarian): 25.7 µM
TGI (OVCAR-4 ovarian): 76.6 µM
GI50 (HCT-15 colon): 3.21 µM
TGI (HCT-15 colon): 11 µM
GI50 (MDA-MB-231 breast): 15.9 µM
TGI (MDA-MB-231 breast): 52.7 µM
GI50 (HOP-62 NSCLC): 11.4 µM
TGI (HOP-62 NSCLC): 28.4 µM
GI50 (KM12 colon): 0.757 µM
TGI (KM12 colon): 10.1 µM
GI50 (SK-MEL-28 melanoma): > 100 µM
TGI (SK-MEL-28 melanoma): > 100 µM
GI50 (A498 renal): 17.2 µM
TGI (A498 renal): 92.2 µM
GI50 (PC-3 prostate): 0.362 µM
TGI (PC-3 prostate): 1.4 µM
GI50 (LOX IMVI melanoma): 16.9 µM
TGI (LOX IMVI melanoma): 54 µM
GI50 (NCI-H460 NSCLC): 1.47 µM
TGI (NCI-H460 NSCLC): 14.7 µM
GI50 (HCC-2998 colon): 4.59 µM
TGI (HCC-2998 colon): 26 µM
